For this data set, the system named is U2OS, H460, HTB-9, ES2, HCT116, Capan, OVCAR3, DU145, SK-Mel-5, KB, A498, MCF-7, HepG2, T98G, K562, HeLa. Description: MTT Cytotoxic Assay of reaction products and isolated compounds. It is filed as cell-based. The source says: The peaks, fractions and compounds are selected according to the activities of times studies and the changes of peaks. Selecting the HPLC fractions for isolation is according to the cytotoxic activity of the reaction product obtained at a specific time. The compounds having strong to weak activities are selected and isolated. Selecting the HPLC fractions for isolation may be according to the cytotoxic activity of times studies and the change of peaks. The anti cancer activities are the MTT studies of bone (U2OS), lung (H460), bladder (HTB-9), ovary (ES2), colon (HCT116), pancreas (Capan), ovary (OVCAR3), prostate (DU145), skin (SK-Mel-5), mouth (KB), kidney (A498), breast (MCF-7), liver (HepG2), brain (T98G), luekemia (K562), cervix (HeLa).
Esterification, amidation, amination, or sulfonamidation of compound (A), (B), (C), (D1), (D2), (E), (F), (G), (H1), (H2), E4A, E4A2Y, E4D, E4D1, (P1), P(2), terpene, isoprene, triterpenes, hydroxylated triterpenes, with acyl halide, wherein the halide comprise chloride, bromide, fluoride and iodide, wherein the acyl halide comprise acyl chloride, wherein acyl chloride comprise tigloyl chloride, angeloyl chloride, acetyl chloride, crotonoyl chloride, 3,3-dimethylartyloyl chloride, senecioyl chloride, cinnamoyl chloride, pentenoyl chloride, hexanoyl chloride, benzoyl chloride, ethylbutyryl chloride, propionyl chloride, 2-propenoyl chloride, isobutyryl chloride, butyryl chloride, (2E)-2-pentenoyl chloride, 4-Pentenoyl chloride, 5-hexenoyl chloride, heptanoyl chloride, octanoyl chloride, nonanoyl chloride, decanoyl chloride, Lauroyl chloride, myristoyl chloride, oleoyl chloride. The compounds vary in composition when the time or temperature of the reaction is changed. The peaks, fractions and compounds are selected according to the activities of times studies and the changes of peaks. The compounds having strong to weak activities are selected and isolated. The anti cancer activities (Cytotoxic Assay) are the MTT studies of bone (U2OS), lung (H460), bladder (HTB-9), ovary (ES2), colon (HCT116), pancreas (Capan), ovary (OVCAR3), prostate (DU145), skin (SK-Mel-5), mouth (KB), kidney (A498), breast (MCF-7), liver (HepG2), brain (T98G), luekemia (K562), cervix (HeLa). The active esterification, amidation, amination, or sulfonamidation products are purified with HPLC. The reaction product of mixtures and individual compounds are tested with MTT Cytotoxic Assay. Details of method are in Experiment 3 of the present application. A second esterification of compound can be selected from the above experiment results to produce new active compounds. A partial esterification compound is selected from the above experiments to perform a second or repeated with a third esterification with different acyl chloride in order to produce new active compounds with the experiments in the present application. The active compounds of this invention are triterpenes in form of amine, sulfonamides, amide, and urea analogs, providing extremely stable activity in solution. They prolong the activities and duration of drug in a subject.
Cells. HTB-9 (bladder), HeLa-S3 (cervix), DU145 (prostate), H460 (lung), MCF-7 (breast), K562 (leukemia), HCT116 (colon), HepG2 (liver), U2OS (bone), T98G (brain), SK-MEL-5 (Skin) and OVCAR 3, ES2 (ovary), Pancreas (Capan), Mouth (KB), Kidney (A498).
MTT Assay. The procedure for MTT assay followed the method described by Carmichael et al. (1987) with modifications. The cells were seeded into a 96-well plate at for 24 hours before drug-treatment. The cells were then exposed to the drugs for 48, 72, or 96 hours. After the drug-treatment, MTT (0.5 mg/mL) was added to cultures and incubated for an hour. The formazan (product of the reduction of tetrazolium by viable cells) formed and was dissolved with DMSO and the O.D. at 490 nm, and was measured by an ELISA reader. The MTT level of the cells before drug-treatment was also measured (T0). […]

This note sets out measurements from patent publication US20230159436A1, “APPLICATIONS OF AMIDE ANALOGS OF TRITERPENES IN CURES OF CANCER AND OTHER DISEASES” (Pacific Arrow Limited, priority 2021, published 2023).

With `CCCCCC(=O)NCC1(C)C(O)CCC2(C)C1CCC1(C)C2CC=C2C3CC(C)(C)C(O)C(O)C3(CNC(=O)CCCCC)C(O)CC21C` (centres unmarked) [DD2], the Cytotoxicity activity entry is on record as “strong”.

`C=CCCC(=O)NCC1(C)C(N)CCC2(C)C1CCC1(C)C2CC=C2C3CC(C)(C)C(NC(=O)CCC=C)C(N)C3(CNC(=O)CCC=C)C(N)CC21C` (centres unmarked) [CC4]: the Cytotoxicity activity entry was “weak”.

As to `CC(C)C(=O)NCC1(C)C(N)CCC2(C)C1CCC1(C)C2CC=C2C3CC(C)(C)C(N)C(N)C3(CNC(=O)C(C)C)C(N)CC21C` (centres unmarked) [NN1], the Cytotoxicity activity entry is recorded as “moderate”.

For `CCCC(=O)NCC1(C)C(O)CCC2(C)C1CCC1(C)C2CC=C2C3CC(C)(C)C(O)C(O)C3(CNC(=O)CCC)C(O)CC21C` (centres unmarked) [PP2], the Cytotoxicity activity entry is “strong”.

On to `CC(C)C(=O)NCC1(C)C(N)CCC2(C)C1CCC1(C)C2CC=C2C3CC(C)(C)C(NC(=O)C(C)C)C(N)C3(CN)C(N)CC21C` (centres unmarked) [NN3], for which the Cytotoxicity activity result is reported as “moderate”.

Regarding `CC=C(C)C(=O)NCC1(C)C(N)CCC2(C)C1CCC1(C)C2CC=C2C3CC(C)(C)C(N)C(N)C3(CNC(=O)C(C)=CC)C(N)CC21C` (centres unmarked) [AA1], the Cytotoxicity activity result was “moderate”.

In the case of `CCC(CC)C(=O)NCC1(C)C(N)CCC2(C)C1CCC1(C)C2CC=C2C3CC(C)(C)C(NC(=O)C(CC)CC)C(N)C3(CNC(=O)C(CC)CC)C(N)CC21C` (centres unmarked) [EE4], the Cytotoxicity activity entry was “weak”.

On to `CC1(C)CC2C3=CCC4C5(C)CCC(O)C(C)(CNC(=O)C=Cc6ccccc6)C5CCC4(C)C3(C)CC(O)C2(CNC(=O)C=Cc2ccccc2)C(O)C1O` (centres unmarked) [JJ2], for which the Cytotoxicity activity result is reported as “strong”.

Turning to `C=CCCC(=O)NCC1(C)C(N)CCC2(C)C1CCC1(C)C2CC=C2C3CC(C)(C)C(N)C(N)C3(CNC(=O)CCC=C)C(N)CC21C` (centres unmarked) [CC1], the Cytotoxicity activity result was “moderate”.

Consider `CC1(C)CC2C3=CCC4C5(C)CCC(O)C(C)(CNC(=O)c6ccccc6)C5CCC4(C)C3(C)CC(O)C2(CNC(=O)c2ccccc2)C(O)C1O` (centres unmarked) [KK2], for which the Cytotoxicity activity entry is recorded as “strong”.

With `CC=CC(=O)NCC1(C)C(N)CCC2(C)C1CCC1(C)C2CC=C2C3CC(C)(C)C(N)C(N)C3(CNC(=O)C=CC)C(N)CC21C` (centres unmarked) [II 1], the Cytotoxicity activity result is listed as “moderate”.

For `CC(=O)NCC1(C)C(N)CCC2(C)C1CCC1(C)C2CC=C2C3CC(C)(C)C(N)C(N)C3(CNC(C)=O)C(N)CC21C` (centres unmarked) [HH1], the Cytotoxicity activity result is given as “moderate”.

Regarding `CC(C)C(=O)NCC1(C)C(N)CCC2(C)C1CCC1(C)C2CC=C2C3CC(C)(C)C(NC(=O)C(C)C)C(N)C3(CNC(=O)C(C)C)C(N)CC21C` (centres unmarked) [NN4], the Cytotoxicity activity result is given as “weak”.

Take `CCCC(=O)NCC1(C)C(N)CCC2(C)C1CCC1(C)C2CC=C2C3CC(C)(C)C(N)C(N)C3(CNC(=O)CCC)C(N)CC21C` (centres unmarked) [PP1]: the Cytotoxicity activity result is “moderate”.

In the case of `C=CC(=O)NCC1(C)C(O)CCC2(C)C1CCC1(C)C2CC=C2C3CC(C)(C)C(O)C(O)C3(CNC(=O)C=C)C(O)CC21C` (centres unmarked) [MM2], the Cytotoxicity activity entry is reported as “strong”.

As for `CCC=CC(=O)NCC1(C)C(O)CCC2(C)C1CCC1(C)C2CC=C2C3CC(C)(C)C(O)C(O)C3(CNC(=O)C=CCC)C(O)CC21C` (centres unmarked) [QQ2], the Cytotoxicity activity entry is on record as “strong”.

Consider `CCCCCC(=O)NCC1(C)C(N)CCC2(C)C1CCC1(C)C2CC=C2C3CC(C)(C)C(NC(=O)CCCCC)C(N)C3(CNC(=O)CCCCC)C(N)CC21C` (centres unmarked) [DD4], for which the Cytotoxicity activity result was “weak”.

On to `CC=C(C)C(=O)NCC1(C)C(N)CCC2(C)C1CCC1(C)C2CC=C2C3CC(C)(C)C(NC(=O)C(C)=CC)C(N)C3(CN)C(N)CC21C` (centres unmarked) [AA3], for which the Cytotoxicity activity result is “moderate”.

For the compound `CC=C(C)C(=O)NCC1(C)C(O)CCC2(C)C1CCC1(C)C2CC=C2C3CC(C)(C)C(O)C(O)C3(CNC(=O)C(C)=CC)C(O)CC21C` (centres unmarked) [AA2], the Cytotoxicity activity result is “strong”.

With `CC1(C)CC2C3=CCC4C5(C)CCC(N)C(C)(CNC(=O)C=Cc6ccccc6)C5CCC4(C)C3(C)CC(N)C2(CN)C(N)C1NC(=O)C=Cc1ccccc1` (centres unmarked) [JJ3], the Cytotoxicity activity entry is on record as “moderate”.

As to `CC(=O)NCC1(C)C(O)CCC2(C)C1CCC1(C)C2CC=C2C3CC(C)(C)C(O)C(O)C3(CNC(C)=O)C(O)CC21C` (centres unmarked) [HH2], the Cytotoxicity activity result is listed as “strong”.

`CC=C(C)C(=O)NCC1(C)C(N)CCC2(C)C1CCC1(C)C2CC=C2C3CC(C)(C)C(NC(=O)C(C)=CC)C(N)C3(CNC(=O)C(C)=CC)C(N)CC21C` (centres unmarked) [AA4]: the Cytotoxicity activity entry is given as “weak”.

Take `CCC(CC)C(=O)NCC1(C)C(N)CCC2(C)C1CCC1(C)C2CC=C2C3CC(C)(C)C(N)C(N)C3(CNC(=O)C(CC)CC)C(N)CC21C` (centres unmarked) [EE1]: the Cytotoxicity activity entry is reported as “moderate”.

Turning to `CC(=O)NCC1(C)C(N)CCC2(C)C1CCC1(C)C2CC=C2C3CC(C)(C)C(NC(C)=O)C(N)C3(CNC(C)=O)C(N)CC21C` (centres unmarked) [HH4], the Cytotoxicity activity entry is recorded as “weak”.

Take `CCCCCC(=O)NCC1(C)C(N)CCC2(C)C1CCC1(C)C2CC=C2C3CC(C)(C)C(N)C(N)C3(CNC(=O)CCCCC)C(N)CC21C` (centres unmarked) [DD1]: the Cytotoxicity activity result is given as “moderate”.

As for `C=CC(=O)NCC1(C)C(N)CCC2(C)C1CCC1(C)C2CC=C2C3CC(C)(C)C(NC(=O)C=C)C(N)C3(CN)C(N)CC21C` (centres unmarked) [MM3], the Cytotoxicity activity entry is on record as “moderate”.

Take `CC(C)=CC(=O)NCC1(C)C(O)CCC2(C)C1CCC1(C)C2CC=C2C3CC(C)(C)C(O)C(O)C3(CNC(=O)C=C(C)C)C(O)CC21C` (centres unmarked) [BB2]: the Cytotoxicity activity result is listed as “strong”.

For the compound `C=CCCC(=O)NCC1(C)C(N)CCC2(C)C1CCC1(C)C2CC=C2C3CC(C)(C)C(NC(=O)CCC=C)C(N)C3(CN)C(N)CC21C` (centres unmarked) [CC3], the Cytotoxicity activity result is “moderate”.

Take `CCCC(=O)NCC1(C)C(N)CCC2(C)C1CCC1(C)C2CC=C2C3CC(C)(C)C(NC(=O)CCC)C(N)C3(CN)C(N)CC21C` (centres unmarked) [PP3]: the Cytotoxicity activity entry is “moderate”.

Take `CC=CC(=O)NCC1(C)C(N)CCC2(C)C1CCC1(C)C2CC=C2C3CC(C)(C)C(NC(=O)C=CC)C(N)C3(CNC(=O)C=CC)C(N)CC21C` (centres unmarked) [II 4]: the Cytotoxicity activity result is listed as “weak”.

Take `CC(C)=CC(=O)NCC1(C)C(N)CCC2(C)C1CCC1(C)C2CC=C2C3CC(C)(C)C(NC(=O)C=C(C)C)C(N)C3(CNC(=O)C=C(C)C)C(N)CC21C` (centres unmarked) [BB4]: the Cytotoxicity activity result was “weak”.

Regarding `CC(C)=CC(=O)NCC1(C)C(N)CCC2(C)C1CCC1(C)C2CC=C2C3CC(C)(C)C(NC(=O)C=C(C)C)C(N)C3(CN)C(N)CC21C` (centres unmarked) [BB3], the Cytotoxicity activity result was “moderate”.

On to `CC(C)=CC(=O)NCC1(C)C(N)CCC2(C)C1CCC1(C)C2CC=C2C3CC(C)(C)C(N)C(N)C3(CNC(=O)C=C(C)C)C(N)CC21C` (centres unmarked) [BB1], for which the Cytotoxicity activity result was “moderate”.

Turning to `CCC(=O)NCC1(C)C(N)CCC2(C)C1CCC1(C)C2CC=C2C3CC(C)(C)C(NC(=O)CC)C(N)C3(CN)C(N)CC21C` (centres unmarked) [LL3], the Cytotoxicity activity entry was “moderate”.

For the compound `C=CCCC(=O)NCC1(C)C(O)CCC2(C)C1CCC1(C)C2CC=C2C3CC(C)(C)C(O)C(O)C3(CNC(=O)CCC=C)C(O)CC21C` (centres unmarked) [CC2], the Cytotoxicity activity result is reported as “strong”.

For the compound `CC1(C)CC2C3=CCC4C5(C)CCC(N)C(C)(CNC(=O)c6ccccc6)C5CCC4(C)C3(C)CC(N)C2(CN)C(N)C1NC(=O)c1ccccc1` (centres unmarked) [KK3], the Cytotoxicity activity result is “moderate”.

For `C=CC(=O)NCC1(C)C(N)CCC2(C)C1CCC1(C)C2CC=C2C3CC(C)(C)C(NC(=O)C=C)C(N)C3(CNC(=O)C=C)C(N)CC21C` (centres unmarked) [MM4], the Cytotoxicity activity result is recorded as “weak”.

As for `CC1(C)CC2C3=CCC4C5(C)CCC(N)C(C)(CNC(=O)c6ccccc6)C5CCC4(C)C3(C)CC(N)C2(CNC(=O)c2ccccc2)C(N)C1NC(=O)c1ccccc1` (centres unmarked) [KK4], the Cytotoxicity activity result is on record as “weak”.
